# Source: patent US7741354B2, “Inhibitors of glutaminyl cyclase” (Probiodrug AG, priority 2006, dated 2010)
# Target: hQC (Homo sapiens, UniProt Q16769)
# Experiment: Fluorometric (fluorescent) assay of hQC inhibition, IC50
# Assay type: biochemical
# Conditions: hQC inhibition; read-out: IC50
# Outline: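 QC activity followed at 30° C via pyroglutamyl aminopeptidase-coupled release of fluorophore, using either H-Gln-βNA (0.2 mM; ex/em 320/410 nm; 0.2 M Tris/HCl pH 8.0, 20 mM EDTA) or H-Gln-AMC (ex/em 380/460 nm; 0.05 M Tris/HCl pH 8.0, 5 mM EDTA).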
# hQC, sequence (Q16769 29-361): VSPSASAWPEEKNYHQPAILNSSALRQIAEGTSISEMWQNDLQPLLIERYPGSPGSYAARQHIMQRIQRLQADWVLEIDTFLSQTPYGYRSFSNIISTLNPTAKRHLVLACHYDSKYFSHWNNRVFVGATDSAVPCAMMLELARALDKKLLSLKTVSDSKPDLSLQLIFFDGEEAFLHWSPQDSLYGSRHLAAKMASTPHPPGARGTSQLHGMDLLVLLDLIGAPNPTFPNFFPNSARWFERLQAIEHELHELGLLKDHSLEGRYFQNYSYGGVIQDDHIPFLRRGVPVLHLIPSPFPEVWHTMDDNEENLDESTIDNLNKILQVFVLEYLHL
row,IC50 [µM],SMILES
1,8.5,"COc1ccc(C(Nc2ccc3[nH]cnc3c2)c2nnnn2CC2CCCO2)cc1F (stereo not drawn) [compound 163, (1H-Benzoimidazol-5-yl)-{(3-fluoro-4-methoxy-phenyl)-[1-(tetrahydro-furan-2-ylmethyl)-1H-tetrazol-5-yl]-methyl}-amine]"
2,5.8,"Oc1ccc(Cl)cc1C(Nc1ccc2[nH]cnc2c1)c1nnnn1C1CCCCC1 (stereo not drawn) [compound 193, 2-[(1H-Benzoimidazol-5-ylamino)-(1-cyclohexyl-1H-tetrazol-5-yl)-methyl]-4-chloro-phenol]"
3,5.8,CCOC(=O)C1CCCCC1n1nnnc1C(Nc1ccc2[nH]cnc2c1)c1ccc2c(c1)OCO2 (stereo not drawn) [compound 162]
4,0.4,"COc1ccc(C(Nc2ccc3[nH]cnc3c2)c2nnnn2Cc2cccnc2)cc1Br (stereo not drawn) [compound 142, (1H-Benzoimidazol-5-yl)-[(3-bromo-4-methoxy-phenyl)-(1-pyridin-3-ylmethyl-1H-tetrazol-5-yl)-methyl]-amine]"
5,9.4,Oc1cccc(C(Nc2ccc3[nH]cnc3c2)c2nnnn2CC2CCCO2)c1 (stereo not drawn) [compound 152]
6,3.1,"Oc1ccc(C(Nc2ccc3[nH]cnc3c2)c2nnnn2Cc2ccc(Cl)cc2)cc1 (stereo not drawn) [compound 191, 4-{(1H-Benzoimidazol-5-ylamino)-[1-(4-chloro-benzyl)-1H-tetrazol-5-yl]-methyl}-phenol]"
7,5.8,"CN(C)c1ccc(C(Nc2ccc3[nH]cnc3c2)c2nnnn2Cc2cccnc2)cc1 (stereo not drawn) [compound 115, (1H-Benzoimidazol-5-yl)-[(4-dimethylamino-phenyl)-(1-pyridin-3-ylmethyl-1H-tetrazol-5-yl)-methyl]-amine]"
8,7.6,"CSc1ccc(C(Nc2ccc3[nH]cnc3c2)c2nnnn2CC2COC(C)(C)O2)cc1 (stereo not drawn) [compound 130, (1H-Benzoimidazol-5-yl)-[[1-(2,2-dimethyl-[1,3]dioxolan-4-ylmethyl)-1H-tetrazol-5-yl]-(4-methylsulfanyl-phenyl)-methyl]-amine]"
9,1.3,"O=C(Cn1nnnc1C(Nc1ccc2[nH]cnc2c1)c1cc(Br)cc(Br)c1)NCCc1c[nH]c2ccccc12 (stereo not drawn) [compound 187, 2-{5-[(1H-Benzoimidazol-5-ylamino)-(3,5-dibromo-phenyl)-methyl]-tetrazol-1-yl}-N-[2-(1H-indol-3-yl)-ethyl]-acetamide]"
10,8.5,CCOC(=O)C1CCCCC1n1nnnc1C(Nc1ccc2[nH]cnc2c1)c1cccc(OC)c1 (stereo not drawn) [compound 192]
11,8.5,"C/C=C/C=C/C(Nc1ccc2[nH]cnc2c1)c1nnnn1CC1CCCO1 (stereo not drawn) [compound 174, (1H-Benzoimidazol-5-yl)-{(2E,4E)-1-[1-(tetrahydro-furan-2-ylmethyl)-1H-tetrazol-5-yl]-hexa-2,4-dienyl}-amine]"
12,0.4,Clc1ccc(Cn2nnnc2C(Nc2ccc3[nH]cnc3c2)c2ccc3nsnc3c2)cc1 (stereo not drawn) [compound 166]
13,4,"c1ccc(Oc2ccc(-n3nnnc3C(Nc3ccc4[nH]cnc4c3)c3ccc4c(c3)OCO4)cc2)cc1 (stereo not drawn) [compound 139, {Benzo[1,3]dioxol-5-yl-[1-(4-phenoxy-phenyl)-1H-tetrazol-5-yl]-methyl}-(1H-benzoimidazol-5-yl)-amine]"

# Same assay, conditions: purified compound from preparative synthesis; fluorescent assay; read-out: IC50 hQC
row,IC50 [µM],SMILES
1,3.47,"C1=COC(C(NCCCn2ccnc2)c2nnnn2C2CCCC2)CC1 (stereo not drawn) [Compound 28, [(1-Cyclopentyl-1H-tetrazol-5-yl)-(3,4-dihydro-2H-pyran-2-yl)-methyl]-(3-imidazol-1-yl-propyl)-amine]"
2,0.668,"Cc1ccc(O)c(C(NCCCn2ccnc2)c2nnnn2C2CC2)c1 (stereo not drawn) [Compound 68, 2-[(1-Cyclopropyl-1H-tetrazol-5-yl)-(3-imidazol-1-yl-propylamino)-methyl]-4-methyl-phenol]"
3,1.03,"CC(C)(C)Cn1nnnc1C(NCCCn1ccnc1)c1ccc2cccc(O)c2n1 (stereo not drawn) [Compound 64, 2-[[1-(2,2-Dimethyl-propyl)-1H-tetrazol-5-yl]-(3-imidazol-1-yl-propylamino)-methyl]-quinolin-8-ol]"

# Same assay, conditions: read-out: IC50
row,IC50 [µM],SMILES
1,8.5,"COc1ncc(C(NCCCn2ccnc2)c2nnnn2C(C)(C)C)c(OC)n1 (stereo not drawn) [compound 62, [(1-tert-Butyl-1H-tetrazol-5-yl)-(2,4-dimethoxy-pyrimidin-5-yl)-methyl]-(3-imidazol-1-yl-propyl)-amine]"
2,7.6,"COCCCn1nnnc1C(NCCCn1ccnc1)c1ccc2[nH]ccc2c1 (stereo not drawn) [compound 35, (3-Imidazol-1-yl-propyl)-{(1H-indol-5-yl)-[1-(3-methoxy-propyl)-1H-tetrazol-5-yl]-methyl}-amine]"
3,4.9,"c1ccc2oc(C(Nc3ccc4[nH]cnc4c3)c3nnnn3CC3CCCO3)cc2c1 (stereo not drawn) [compound 101, {Benzofuran-2-yl-[1-(tetrahydro-furan-2-ylmethyl)-1H-tetrazol-5-yl]-methyl}-(1H-benzoimidazol-5-yl)-amine]"
4,4,"CC(CC(Nc1ccc2[nH]cnc2c1)c1nnnn1CC1CCCO1)c1ccccc1 (stereo not drawn) [compound 97, (1H-Benzoimidazol-5-yl)-{3-phenyl-1-[1-(tetrahydro-furan-2-ylmethyl)-1H-tetrazol-5-yl]-butyl}-amine]"
5,1.3,"Clc1ccc(Cn2nnnc2C(NCCCn2ccnc2)c2ccc3ccccc3n2)cc1 (stereo not drawn) [compound 7, {[1-(4-Chloro-benzyl)-1H-tetrazol-5-yl]-quinolin-2-yl-methyl}-(3-imidazol-1-yl-propyl)-amine]"
6,4,CCOC(=O)C1CC1C(Nc1ccc2[nH]cnc2c1)c1nnnn1CCc1cccs1 (stereo not drawn) [compound 104]
7,4,"CCc1ccc(C(Nc2ccc3[nH]cnc3c2)c2nnnn2Cc2cccnc2)cc1 (stereo not drawn) [compound 82, (1H-Benzoimidazol-5-yl)-[(4-ethyl-phenyl)-(1-pyridin-3-ylmethyl-1H-tetrazol-5-yl)-methyl]-amine]"
8,4.9,"c1cn(CCCNC(c2ccc3[nH]ccc3c2)c2nnnn2C2CC2)cn1 (stereo not drawn) [compound 69, [(1-Cyclopropyl-1H-tetrazol-5-yl)-(1H-indol-5-yl)-methyl]-(3-imidazol-1-yl-propyl)-amine]"
9,1.3,"COc1ccc(C(Nc2ccc3[nH]cnc3c2)c2nnnn2CC2CCCO2)cc1Br (stereo not drawn) [compound 109, (1H-Benzoimidazol-5-yl)-{(3-bromo-4-methoxy-phenyl)-[1-(tetrahydro-furan-2-ylmethyl)-1H-tetrazol-5-yl]-methyl}-amine]"
10,0.4,"C1=COC(C(NCCCn2ccnc2)c2nnnn2C2CCCC2)CC1 (stereo not drawn) [Compound 28, [(1-Cyclopentyl-1H-tetrazol-5-yl)-(3,4-dihydro-2H-pyran-2-yl)-methyl]-(3-imidazol-1-yl-propyl)-amine]"
11,0.4,"Cc1ccc(O)c(C(NCCCn2ccnc2)c2nnnn2C2CC2)c1 (stereo not drawn) [Compound 68, 2-[(1-Cyclopropyl-1H-tetrazol-5-yl)-(3-imidazol-1-yl-propylamino)-methyl]-4-methyl-phenol]"
12,4.9,CCOC(=O)C1CCCCC1n1nnnc1C(Nc1ccc2[nH]cnc2c1)c1ccc(Br)cc1 (stereo not drawn) [compound 103]
13,8.5,COc1cc(C)c(C(Nc2ccc3[nH]cnc3c2)c2nnnn2C(C)(C)C)cc1C (stereo not drawn) [compound 99]
14,5.8,"CN(C)c1ccc(C(Nc2ccc3[nH]cnc3c2)c2nnnn2CC2CCCO2)cc1 (stereo not drawn) [compound 108, (1H-Benzoimidazol-5-yl)-{(4-dimethylamino-phenyl)-[1-(tetrahydro-furan-2-ylmethyl)-1H-tetrazol-5-yl]-methyl}-amine]"
15,7.6,"CC(Cc1ccc2c(c1)OCO2)C(Nc1ccc2[nH]cnc2c1)c1nnnn1CC1CCCO1 (stereo not drawn) [compound 93, {3-Benzo[1,3]dioxol-5-yl-2-methyl-1-[1-(tetrahydro-furan-2-ylmethyl)-1H-tetrazol-5-yl]-propyl}-(1H-benzoimidazol-5-yl)-amine]"
16,6.7,"Cc1ccc2c(C(Nc3ccc4[nH]cnc4c3)c3nnnn3CC3CCCO3)c[nH]c2c1 (stereo not drawn) [compound 80, (1H-Benzoimidazol-5-yl)-{(6-methyl-1H-indol-3-yl)-[1-(tetrahydro-furan-2-ylmethyl)-1H-tetrazol-5-yl]-methyl}-amine]"
17,4,"COC(=O)Cn1nnnc1C(NCCCn1ccnc1)c1ccc(OC)c(O)c1 (stereo not drawn) [compound 58, {5-[(3-Hydroxy-4-methoxy-phenyl)-(3-imidazol-1-yl-propylamino)-methyl]-tetrazol-1-yl}-acetic methyl ester]"
18,4,"C=CCn1nnnc1C(NCCCn1ccnc1)c1ccc2cccc(O)c2n1 (stereo not drawn) [compound 45, 2-[(1-Allyl-1H-tetrazol-5-yl)-(3-imidazol-1-yl-propylamino)-methyl]-quinolin-8-ol]"
19,2.2,"CCCCn1nnnc1C(NCCCn1ccnc1)c1ccc2cccc(O)c2n1 (stereo not drawn) [compound 20, 2-[(1-Butyl-1H-tetrazol-5-yl)-(3-imidazol-1-yl-propylamino)-methyl]-quinolin-8-ol]"
20,4,"CC1=CCCC[C@@H]1C(NCCCn1ccnc1)c1nnnn1Cc1ccc(Cl)cc1 (stereo partly drawn) [compound 8, [[1-(4-Chloro-benzyl)-1H-tetrazol-5-yl]-((S)-2-methyl-cyclohex-2-enyl)-methyl]-(3-imidazol-1-yl-propyl)-amine]"
21,5.8,"COCCn1nnnc1C(NCCCn1ccnc1)c1ccc2ccccc2n1 (stereo not drawn) [compound 42, (3-Imidazol-1-yl-propyl)-{[1-(2-methoxy-ethyl)-1H-tetrazol-5-yl]-quinolin-2-yl-methyl}-amine]"
22,4.9,"Clc1ccc(Cn2nnnc2[C@H](NCCCn2ccnc2)C2CCC=CO2)cc1 (stereo partly drawn) [compound 9, {(S)-[1-(4-Chloro-benzyl)-1H-tetrazol-5-yl]-3,4-dihydro-2H-pyran-2-yl-methyl}-(3-imidazol-1-yl-propyl)-amine]"
23,4.9,"C=CCn1nnnc1C(NCCCn1ccnc1)c1cc(C)ccc1O (stereo not drawn) [compound 44, 2-[(1-Allyl-1H-tetrazol-5-yl)-(3-imidazol-1-yl-propylamino)-methyl]-4-methyl-phenol]"
24,0.4,"CC(C)(C)Cn1nnnc1C(NCCCn1ccnc1)c1ccc2cccc(O)c2n1 (stereo not drawn) [Compound 64, 2-[[1-(2,2-Dimethyl-propyl)-1H-tetrazol-5-yl]-(3-imidazol-1-yl-propylamino)-methyl]-quinolin-8-ol]"
25,5.8,"Cc1ccc(C(C)CC(Nc2ccc3[nH]cnc3c2)c2nnnn2CC2CCCO2)o1 (stereo not drawn) [compound 111, (1H-Benzoimidazol-5-yl)-{3-(5-methyl-furan-2-yl)-1-[1-(tetrahydro-furan-2-ylmethyl)-1H-tetrazol-5-yl]-butyl}-amine]"
26,7.6,"CCCCn1nnnc1C(NCCCn1ccnc1)c1ccc(Cl)c(Cl)c1 (stereo not drawn) [compound 18, [(1-Butyl-1H-tetrazol-5-yl)-(3,4-dichloro-phenyl)-methyl]-(3-imidazol-1-yl-propyl)-amine]"
